Read-outs that look alike come from different tables or passages of the source.
What was measured:
[1] = system: H1993 cells; assay: Combination treatment with paclitaxel, CellTiter-Glo viability, Bliss Independence; format: cell-based, human; conditions: 96 h, FIG. 2
Experimental: Spirodienone 4l was evaluated against patient-derived NSCLC cell line H1993 and its drug-resistant variant, H2073. The patient-derived NSCLC cell line […] was obtained from a regrown tumor at a primary site after a patient relapsed several months later.
Paclitaxel (Teva™) was dissolved in polyethoxylated castor oil. Compound 4l was dissolved in DMSO. The compound was diluted to different concentrations in medium. Appropriate numbers of cells (4×10^3 cells per well for H1993, 7×10^3 cells per well for H2073) were seeded into 96-well plates. […] After 96 h, viability of cells was assessed using the CellTiter-Glo® Luminescent Cell Viability Assay (Promega™), according to the manufacturer's instructions. Predicted additivity was calculated based on Bliss Independence, as defined by Exy=Ex+Ey−ExEy, where Exy is the additive effect of drugs x and y as predicted by the individual effects Ex and Ey.
FIG. 2 and FIG. 3 illustrate the synergism against H1993 cells.

[2] = system: H1993 cells; assay: MTT growth inhibition, H1993 NSCLC; format: cell-based; conditions: Homo sapiens
Experimental: (§1) All compounds were dissolved in DMSO at a concentration of either 100 mM or 50 mM prior to cell treatment. The cells were trypsinized and seeded at various cell concentrations depending on the cell type. The cells were grown for 24 h to 72 h, treated with compounds at concentrations ranging from 0.001 to 100 μM, and incubated for 48, 72, or 96 h in 100 or 200 μL media depending on the cell line used. Cells treated with 0.1% DMSO were used as a negative control, and cells treated with 1 μM phenyl arsine oxide (PAO) were used as a positive control.
(§2) Drug-resistant cell lines (i.e., glioma: Hs683, U373, U251, U87, T98G; lung cancer: A549, H2073; uterine carcinoma: MES-SA/Dx5) were complemented with drug-sensitive cell lines, H1993 lung cancer and MES-SA uterine cancer, which were used as controls. […] The GI50 values were calculated after 48-96 hours of treatment with the indicated compounds in replicate using the MTT growth assay.

[3] = system: U251 cells; assay: MTT growth inhibition, U251 glioma; format: cell-based, human; conditions: Homo sapiens
Experimental: (§3) Human cancer cell lines were obtained from the American Type Culture Collection (ATCC, Manassas, Va., USA), the European Collection of Cell Culture (ECACC, Salisbury, UK), and the Deutsche Sammlung von Mikroorganismen und Zellkulturen (DSMZ, Braunschweig, Germany). Human cervical adenocarcinoma HeLa cells were cultured in DMEM supplemented with 10% fetal bovine serum (FBS). Human mammary carcinoma MCF-7 cells were cultured in RPMI supplemented with 10% FBS. The U87 cells (ATCC HTB-14) were cultured in DMEM culture medium, while the A549 cells (DSMZ ACC107) were cultured in RPMI culture medium supplemented with 10% heat-inactivated FBS. The GBM Hs683 (ATCC HTB-138) and the T98G (ATCC CRL-1690) cell lines were cultivated in DMEM supplemented with 10% FBS. The GBM U251 cells (ECACC code 09063001) were cultured in 10% MEM. The human uterine sarcoma MES-SA and MES-SA/Dx5 cells were cultured in RPMI-1640 medium supplemented with 10% FBS with MES SA/Dx5 maintained in the presence of 500 nM Doxorubicin (Sigma™). The U373 glioblastoma cells (ECACC 08061901) were cultured in RPMI culture medium supplemented with 10% heat-inactivated FBS.
as §1
(§4) Compound 4l was evaluated for in vitro growth inhibition against a panel of cancer cell lines, including U373, U251, U87, T98G, human GBM, and A549 NSCLC. […] Compound 4l was also evaluated for in vitro growth inhibition against the apoptosis-sensitive tumor model Hs683 anaplastic oligodendroglioma as a reference.
(§5) Due to their high potencies, compounds 5l and 5g were used to determine the effects of the compounds on drug-resistant tumor cells. Drug-resistant cell lines (i.e., glioma: Hs683, U373, U251, U87, T98G; lung cancer: A549, H2073; uterine carcinoma: MES-SA/Dx5) were complemented with drug-sensitive cell lines, H1993 lung cancer and MES-SA uterine cancer, which were used as controls. Bulbispermine and paclitaxel were also used as controls. The GI50 values were calculated after 48-96 hours of treatment with the indicated compounds in replicate using the MTT growth assay.

[4] = system: U87 cells; assay: MTT growth inhibition, U87 glioma; format: cell-based, human; conditions: Homo sapiens, U-87 MG
Experimental: as §3, §1, §4, §5

[5] = system: MES-SA/Dx5 cells; assay: MTT growth inhibition, MDR uterine sarcoma MES-SA/Dx5; format: cell-based, human; conditions: for GI50: Homo sapiens, MES-SA/Dx5, MTT
Experimental: as §3, §1
Compound 4l was also evaluated against the MDR uterine sarcoma cell line (MES-SA/Dx5 to evaluate whether the compounds of the invention were substrates for the MDR cancer efflux systems. The MES-SA/Dx5 cell line was established from the parent uterine sarcoma MES-SA, grown in the presence of increasing concentrations of doxorubicin and is known to be resistant to a number of P-gp substrates.
The selection of doxorubicin-resistant cells (MES-SA/Dx5 cell line) was performed by splitting the cells and allowing the cells to adhere overnight. The next day, the cells were initially exposed to a DOX concentration of 100 nM, which represented the GI50 concentration. The cells were maintained at this DOX concentration until their growth rate reached that of the untreated cells. The DOX concentration was then increased in two-fold increments following the same growth criteria at each concentration to a final DOX concentration of 500 nM. Each new DOX concentration required approximately 2 passages to reach the growth rate of the untreated cells.
as §5

[6] = system: T98G cells; assay: MTT growth inhibition, T98G glioma; format: cell-based, human; conditions: Homo sapiens, T98G
Experimental: as §3, §1, §4, §5

[7] = system: A549 cells; assay: MTT growth inhibition, A549 NSCLC; format: cell-based, human
Experimental: as §3, §1, §2
Compounds 5l and 5g were further tested using the A549 lung cancer cell line to determine a dose-response effect on apoptosis-resistant cells. (FIGS. 4-7). […] The MTT assay was performed in four replicates after 48 hours of treatment with the indicated compounds relative to a DMSO control.

Compound | synergism with paclitaxel in antiproliferative action [1] | GI50 ([2]; NCI-H1993, Table 3, 48-96 h treatment, read-out: GI50 in vitro values, lung cancer H1993) [µM] | GI50 ([3]; U-251, Table 3, 48-96 h treatment, read-out: GI50 in vitro values, glioma U251) [µM] | GI50 ([4]; Table 3, 48-96 h treatment, read-out: GI50 in vitro values, glioma U87) [µM] | GI50 ([5]; Table 3, 48-96 h treatment, read-out: GI50 in vitro values, uterine sarcoma MES-SA/Dx5) [µM] | variation in activity, MDR cell line versus parent cell line ([5]; MES-SA/Dx5 versus MES-SA) | GI50 ([6]; Table 3, 48-96 h treatment, read-out: GI50 in vitro values, glioma T98G) [µM] | anti-proliferative activity, dose-response (absorbance at 595 nm) ([7]; 48 hours, up to 100 μM, FIGS. 4-7) | GI50 ([7]; Homo sapiens, Table 5, 48-96 hours of treatment, read-out: GI50, Lung Cancer A549) [µM] | GI50 ([2]; NCI-H1993, Table 5, 48-96 hours of treatment, read-out: GI50, Lung Cancer H1993) [µM] | GI50 ([3]; U-251, Table 5, 48-96 hours of treatment, read-out: GI50, Glioma U251) [µM] | GI50 ([4]; Table 5, 48-96 hours of treatment, read-out: GI50, Glioma U87) [µM] | GI50 ([5]; Table 5, 48-96 hours of treatment, read-out: GI50, Sarcoma MES-SA/Dx5) [µM] | GI50 ([6]; Table 5, 48-96 hours of treatment, read-out: GI50, Glioma T98G) [µM]
O=C1C=CC2(C=C1)CCN(C(=O)C(F)(F)F)Cc1c2sc2ccccc12 [Compound 4l] | synergize with paclitaxel | 12 | 4 | 6 | 5 | small variation in activity | 15 |  |  |  |  |  |  | 
O=C1C=C[C@]23CC[N@](Cc4c2sc2ccccc42)[C@H]3C1 [Compound 5l] |  |  |  |  |  |  |  | inhibited proliferation of the cells in a dose-dependent manner | 4 | 3 | 5 | 5 | 7 | 7

Source: US10414778B2, “Methods for treatment of resistant cancer” (New Mexico Tech University Research Park Corporation, priority 2016, dated 2019)
